Measured values from patent US10787450B2 (BRISTOL-MYERS SQUIBB COMPANY, priority 2016, dated 2020).

target: ROCK2 (Homo sapiens (Human), UniProt O75116); assay: ROCK2 kinase inhibition assay (FITC peptide substrate, LABCHIP 3000 Reader); assay type: biochemical; settings: 5 μM ATP, 1.5 μM peptide substrate
Method in brief: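 IC50 derived by curve fitting of dose-response inhibition, read as separation of phosphorylated from unphosphorylated FITC peptide (1.5 μM) after EDTA stop. Buffer: HEPES pH 7.5, MgCl2, Brij-35, DTT; ATP 5 μM; final DMSO <2%; reaction initiated by Rho kinase addition.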

Chain of ROCK2 (O75116 whole entry, species assumed): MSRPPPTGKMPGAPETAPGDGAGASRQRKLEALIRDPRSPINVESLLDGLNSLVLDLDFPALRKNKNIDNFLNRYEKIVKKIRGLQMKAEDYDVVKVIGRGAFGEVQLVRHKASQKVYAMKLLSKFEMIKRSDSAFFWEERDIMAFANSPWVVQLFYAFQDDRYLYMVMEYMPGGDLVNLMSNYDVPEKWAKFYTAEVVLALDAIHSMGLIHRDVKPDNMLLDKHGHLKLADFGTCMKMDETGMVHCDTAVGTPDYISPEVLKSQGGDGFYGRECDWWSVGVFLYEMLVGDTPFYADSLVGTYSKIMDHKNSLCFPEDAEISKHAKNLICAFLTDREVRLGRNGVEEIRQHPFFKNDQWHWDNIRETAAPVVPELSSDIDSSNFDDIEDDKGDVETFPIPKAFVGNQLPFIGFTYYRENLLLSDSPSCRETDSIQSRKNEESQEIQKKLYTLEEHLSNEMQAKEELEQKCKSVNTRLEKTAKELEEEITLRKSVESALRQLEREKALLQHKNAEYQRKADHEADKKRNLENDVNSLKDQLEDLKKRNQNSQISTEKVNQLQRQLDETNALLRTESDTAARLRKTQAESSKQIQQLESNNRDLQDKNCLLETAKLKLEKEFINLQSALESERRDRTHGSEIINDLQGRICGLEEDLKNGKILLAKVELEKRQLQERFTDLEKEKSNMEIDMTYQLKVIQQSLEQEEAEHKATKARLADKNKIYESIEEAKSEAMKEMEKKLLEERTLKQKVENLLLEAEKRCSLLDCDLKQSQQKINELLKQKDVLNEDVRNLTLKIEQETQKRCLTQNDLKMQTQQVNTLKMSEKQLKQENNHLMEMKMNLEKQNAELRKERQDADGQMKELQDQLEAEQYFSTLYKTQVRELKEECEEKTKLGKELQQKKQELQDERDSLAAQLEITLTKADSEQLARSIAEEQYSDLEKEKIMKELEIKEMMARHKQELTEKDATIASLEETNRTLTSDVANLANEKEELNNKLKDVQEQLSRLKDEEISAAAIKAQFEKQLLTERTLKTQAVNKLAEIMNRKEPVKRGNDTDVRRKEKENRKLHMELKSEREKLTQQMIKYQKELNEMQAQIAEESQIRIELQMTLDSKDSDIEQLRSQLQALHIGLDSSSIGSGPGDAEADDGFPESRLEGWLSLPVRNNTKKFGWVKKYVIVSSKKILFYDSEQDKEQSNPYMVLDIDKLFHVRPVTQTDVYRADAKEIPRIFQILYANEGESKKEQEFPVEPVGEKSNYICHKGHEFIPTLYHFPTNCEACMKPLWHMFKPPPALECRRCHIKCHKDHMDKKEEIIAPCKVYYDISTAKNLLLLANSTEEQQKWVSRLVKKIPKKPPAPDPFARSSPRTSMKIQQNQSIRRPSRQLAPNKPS

| SMILES | IC50 [nM] |
| --- | --- |
| CCc1nc(N2CC3(CCN(C(=O)CO)CC3)N(Cc3cccc(OC)c3)C2=O)ccc1-c1cn[nH]c1 [Example 184, 3-(6-ethyl-5-(1H-pyrazol-4-yl)pyridin-2-yl)-8-(2-hydroxyacetyl)-1-(3-methoxybenzyl)-1,3,8-triazaspiro[4.5]decan-2-one] | < 3 |
| CCc1nc(N2CC3(CCN(C(=O)C4COC4)CC3)N(Cc3cccc(OC)c3)C2=O)ccc1-c1cn[nH]c1 [Example 185, 3-(6-ethyl-5-(1H-pyrazol-4-yl)pyridin-2-yl)-1-(3-methoxybenzyl)-8-(oxetane-3-carbonyl)-1,3,8-triazaspiro[4.5]decan-2-one] | < 3 |
| CCc1nc(N2CC3(CCN(C(=O)CO)CC3)N(Cc3cc(F)cc(OC)c3)C2=O)ccc1-c1cn[nH]c1 [Example 186, 3-(6-ethyl-5-(1H-pyrazol-4-yl)pyridin-2-yl)-1-(3-fluoro-5-methoxybenzyl)-8-(2-hydroxyacetyl)-1,3,8-triazaspiro[4.5]decan-2-one] | < 3 |
| CCc1nc(N2CC3(CCN(C(=O)C(C)(C)O)CC3)N(Cc3cc(F)cc(OC)c3)C2=O)ccc1-c1cn[nH]c1 [Example 187, 3-(6-ethyl-5-(1H-pyrazol-4-yl)pyridin-2-yl)-1-(3-fluoro-5-methoxybenzyl)-8-(2-hydroxy-2-methylpropanoyl)-1,3,8-triazaspiro[4.5]decan-2-one] | < 3 |
| CCc1nc(N2CC3(CCN(C(=O)C(C)O)CC3)N(Cc3cc(F)cc(OC)c3)C2=O)ccc1-c1cn[nH]c1 (centres unmarked) [Example 188, 3-(6-ethyl-5-(1H-pyrazol-4-yl)pyridin-2-yl)-1-(3-fluoro-5-methoxybenzyl)-8-(2-hydroxypropanoyl)-1,3,8-triazaspiro[4.5]decan-2-one] | < 3 |
| Cc1c(F)cccc1CN1C(=O)N(c2ccc(-c3cn[nH]c3)cc2)CC12CCN(C(=O)C1(C)COC1)CC2 [Example 189, 3-(4-(1H-pyrazol-4-yl)phenyl)-1-(3-fluoro-2-methylbenzyl)-8-(3-methyloxetane-3-carbonyl)-1,3,8-triazaspiro[4.5]decan-2-one] | 3 to 30 |
| COc1cc(F)cc(CN2C(=O)N(c3ccc(-c4cn[nH]c4)cc3)CC23CCN(C(=O)C(C)(C)O)CC3)c1 [Example 190, 3-(4-(1H-pyrazol-4-yl)phenyl)-1-(3-fluoro-5-methoxybenzyl)-8-(2-hydroxy-2-methylpropanoyl)-1,3,8-triazaspiro[4.5] decan-2-one] | < 3 |
| COc1cccc(CN2C(=O)N(c3ccc(-c4cn[nH]c4)cc3)CC23CCN(C(=O)C(C)O)CC3)c1 (centres unmarked) [Example 191, 3-(4-(1H-pyrazol-4-yl)phenyl)-8-(2-hydroxypropanoyl)-1-(3-methoxybenzyl)-1,3,8-triazaspiro[4.5]decan-2-one] | < 3 |
| COc1cccc(CN2C(=O)N(c3ccc(-c4cn[nH]c4)cc3)CC23CCN(C(=O)C(C)(C)O)CC3)c1 [Example 192, 3-(4-(1H-pyrazol-4-yl)phenyl)-8-(2-hydroxy-2-methylpropanoyl)-1-(3-methoxybenzyl)-1,3,8-triazaspiro[4.5]decan-2-one] | < 3 |
| COc1cc(F)cc(CN2C(=O)N(c3ccc(-c4cn[nH]c4)cc3)CC23CCN(C(=O)C2(C)COC2)CC3)c1 [Example 193, 33-(4-(1H-pyrazol-4-yl)phenyl)-1-(3-fluoro-5-methoxybenzyl)-8-(3-methyloxetane-3-carbonyl)-1,3,8-triazaspiro[4.5]decan-2-one] | < 3 |
| COc1cccc(CN2C(=O)N(c3ccc(-c4cn[nH]c4)cn3)CC23CCN(C(=O)C(F)F)CC3)c1 [Example 194, 3-(5-(1H-pyrazol-4-yl)pyridin-2-yl)-8-(2,2-difluoroacetyl)-1-(3-methoxybenzyl)-1,3,8-triazaspiro[4.5]decan-2-one] | 3 to 30 |
| COc1cccc(CN2C(=O)N(c3ccc(-c4cn[nH]c4)cn3)CC23CCN(C(=O)CO)CC3)c1 [Example 195, 3-(5-(1H-pyrazol-4-yl)pyridin-2-yl)-8-(2-hydroxyacetyl)-1-(3-methoxybenzyl)-1,3,8-triazaspiro[4.5]decan-2-one] | 3 to 30 |
| COc1cccc(CN2C(=O)N(c3ccc(-c4cn[nH]c4)cn3)CC23CCN(C(=O)C2COC2)CC3)c1 [Example 196, 3-(5-(1H-pyrazol-4-yl)pyridin-2-yl)-1-(3-methoxybenzyl)-8-(oxetane-3-carbonyl)-1,3,8-triazaspiro[4.5]decan-2-one] | 3 to 30 |

Next, values leading:

| IC50 [nM] | SMILES |
| --- | --- |
| 3 to 30 | COCC(=O)N1CCC2(CC1)CN(c1ccc(-c3cn[nH]c3)cn1)C(=O)N2Cc1cccc(OC)c1 [Example 197, 3-(5-(1H-pyrazol-4-yl)pyridin-2-yl)-8-(2-methoxyacetyl)-1-(3-methoxybenzyl)-1,3,8-triazaspiro[4.5]decan-2-one] |
| 3 to 30 | COc1cccc(CN2C(=O)N(c3ccc(-c4cn[nH]c4)cn3)CC23CCN(C(=O)C(C)O)CC3)c1 (centres unmarked) [Example 198, 3-(5-(1H-pyrazol-4-yl)pyridin-2-yl)-8-(2-hydroxypropanoyl)-1-(3-methoxybenzyl)-1,3,8-triazaspiro[4.5]decan-2-one] |
| 3 to 30 | COc1cccc(CN2C(=O)N(c3ccc(-c4cn[nH]c4)cn3)CC23CCN(C(=O)C(C)(C)O)CC3)c1 [Example 199, 3-(5-(1H-pyrazol-4-yl)pyridin-2-yl)-8-(2-hydroxy-2-methylpropanoyl)-1-(3-methoxybenzyl)-1,3,8-triazaspiro[4.5]decan-2-one] |
| < 3 | CCc1nc(N2CC3(CCN(C(=O)CC(C)C)CC3)N(Cc3cccc(OC)c3)C2=O)ccc1-c1cn[nH]c1 [Example 200, 3-(6-ethyl-5-(1H-pyrazol-4-yl)pyridin-2-yl)-1-(3-methoxybenzyl)-8-(3-methylbutanoyl)-1,3,8-triazaspiro[4.5]decan-2-one] |
| < 3 | CCc1nc(N2CC3(CCN(C(=O)C(C)C)CC3)N(Cc3cccc(OC)c3)C2=O)ccc1-c1cn[nH]c1 [Example 201, 3-(6-ethyl-5-(1H-pyrazol-4-yl)pyridin-2-yl)-8-isobutyryl-1-(3-methoxybenzyl)-1,3,8-triazaspiro[4.5]decan-2-one] |
| < 3 | CCc1nc(N2CC3(CCN(C(=O)C4CC(F)(F)C4)CC3)N(Cc3cccc(OC)c3)C2=O)ccc1-c1cn[nH]c1 [Example 202, 8-(3,3-difluorocyclobutane-carbonyl)-3-(6-ethyl-5-(1H-pyrazol-4-yl)pyridin-2-yl)-1-(3-methoxybenzyl)-1,3,8-triazaspiro[4.5]decan-2-one] |
| < 3 | CCc1nc(N2CC3(CCN(C(=O)CN(C)C)CC3)N(Cc3cccc(OC)c3)C2=O)ccc1-c1cn[nH]c1 [Example 203, 8-(2-(dimethylamino)acetyl)-3-(6-ethyl-5-(1H-pyrazol-4-yl)pyridin-2-yl)-1-(3-methoxybenzyl)-1,3,8-triazaspiro[4.5]decan-2-one] |
| < 3 | CCc1nc(N2CC3(CCN(C(=O)C(C)(C)CO)CC3)N(Cc3cccc(OC)c3)C2=O)ccc1-c1cn[nH]c1 [Example 204, 3-(6-ethyl-5-(1H-pyrazol-4-yl)pyridin-2-yl)-8-(3-hydroxy-2,2-dimethylpropanoyl)-1-(3-methoxybenzyl)-1,3,8-triazaspiro[4.5]decan-2-one] |
| 3 to 30 | CCc1nc(N2CC3(CCN(C(=O)C(C)(C)O)CC3)N(Cc3cccc(OC)c3)C2=O)ccc1-c1cn[nH]c1 [Example 205, 3-(6-ethyl-5-(1H-pyrazol-4-yl)pyridin-2-yl)-8-(2-hydroxy-2-methylpropanoyl)-1-(3-methoxybenzyl)-1,3,8-triazaspiro[4.5]decan-2-one] |
| < 3 | CCc1nc(N2CC3(CCN(C(=O)COC)CC3)N(Cc3cccc(OC)c3)C2=O)ccc1-c1cn[nH]c1 [Example 206, 3-(6-ethyl-5-(1H-pyrazol-4-yl)pyridin-2-yl)-8-(2-methoxyacetyl)-1-(3-methoxybenzyl)-1,3,8-triazaspiro[4.5]decan-2-one] |
| < 3 | CCc1nc(N2CC3(CCN(C(=O)C4CCCO4)CC3)N(Cc3cccc(OC)c3)C2=O)ccc1-c1cn[nH]c1 (centres unmarked) [Example 207, 3-(6-ethyl-5-(1H-pyrazol-4-yl)pyridin-2-yl)-1-(3-methoxybenzyl)-8-(tetrahydrofuran-2-carbonyl)-1,3,8-triazaspiro[4.5]decan-2-one] |
| 3 to 30 | CCc1nc(N2CC3(CCN(C(=O)C4CC(F)C4)CC3)N(Cc3cccc(OC)c3)C2=O)ccc1-c1cn[nH]c1 (centres unmarked) [Example 208, 3-(6-ethyl-5-(1H-pyrazol-4-yl)pyridin-2-yl)-8-(3-fluorocyclobutane-carbonyl)-1-(3-methoxybenzyl)-1,3,8-triazaspiro[4.5]decan-2-one] |
| 3 to 30 | COc1cccc(CN2C(=O)N(c3ncc(-c4cn[nH]c4)c(OC)n3)CC23CCN(C(=O)C2CC(F)(F)C2)CC3)c1 [Example 209, 8-(3,3-difluorocyclo-butanecarbonyl)-3-(4-methoxy-5-(1H-pyrazol-4-yl)pyrimidin-2-yl)-1-(3-methoxybenzyl)-1,3,8-triazaspiro[4.5]decan-2-one] |
| < 3 | COc1cccc(CN2C(=O)N(c3ncc(-c4cn[nH]c4)c(OC)n3)CC23CCN(C(=O)CN(C)C)CC3)c1 [Example 210, 8-(2-(dimethylamino)acetyl)-3-(4-methoxy-5-(1H-pyrazol-4-yl)pyrimidin-2-yl)-1-(3-methoxybenzyl)-1,3,8-triazaspiro[4.5]decan-2-one] |
| 30 to 250 | COc1cccc(CN2C(=O)N(c3ncc(-c4cn[nH]c4)c(OC)n3)CC23CCN(C(=O)C(C)(C)CO)CC3)c1 [Example 211, 8-(3-hydroxy-2,2-dimethylpropanoyl)-3-(4-methoxy-5-(1H-pyrazol-4-yl)pyrimidin-2-yl)-1-(3-methoxybenzyl)-1,3,8-triazaspiro[4.5] decan-2-one] |
| 3 to 30 | COc1cccc(CN2C(=O)N(c3ncc(-c4cn[nH]c4)c(OC)n3)CC23CCN(C(=O)C(C)(C)O)CC3)c1 [Example 212, 8-(2-hydroxy-2-methylpropanoyl)-3-(4-methoxy-5-(1H-pyrazol-4-yl)pyrimidin-2-yl)-1-(3-methoxybenzyl)-1,3,8-triazaspiro[4.5]decan-2-one] |
